Test results from patent publication US10131657B2, “Bromodomain inhibitors” (AbbVie Inc., priority 2013, dated 2018).

Tested on: breast cancer cell line MX-1
Test: MX-1 cell line proliferation assay, Method B
Type: cell-based
Conditions: Homo sapiens, MX1; MX-1 cells, 384-well, 72 hours, Cell Titer Glo; read-out: Cellular proliferation: EC50 Method B
Protocol: The impact of compounds of the Examples on cancer cell proliferation was determined using the breast cancer cell line MX-1 (ATCC) in a 3-day proliferation assay and the data are reported in Table 1.
MX-1 cells were maintained in RPMI 1640 medium (Sigma) supplemented with 10% FBS at 37° C. and an atmosphere of 5% CO2. For compound testing, MX-1 cells were plated in 384-well white with clear, flat bottom plates at a density of 750 cells/well in 25 μL of culture media and incubated at 370 overnight to allow cell adhesion and spreading. Ten point compound dilution series were prepared in DMSO via a 3-fold serial dilution from either 10 μM or 1 μM stock and added directly to the appropriate wells of the MX-1 cell plate by an ECHO liquid handler (Labcyte). The final compound concentrations in the wells were 10, 3.25, 1, 0.25, 0.124, 0.040, 0.0124, 0.0031, 0.0015 and 0.0005 μM or 1, 0.33, 0.1, 0.025, 0.0124, 0.004, 0.0012, 0.0003, 0.00015, 0.00005 μM, depending on the concentration of the compound stock solution.
Luminescence readings from the Cell Titer Glo assay were normalized to the DMSO treated cells and analyzed using Accelrys Assay Explorer 3.3 software with sigmoidal curve fitting to obtain EC50s. The minimum significant ratio (MSR) was determined to evaluate assay reproducibility (Eastwood et al., (2006) J Biomol Screen, 11: 253-261). The overall MSR was determined to be 3.3 and a moving MSR (last six run MSR overtime) has averaged 2.1.

| SMILES | EC50 [µM] |
| --- | --- |
| CCNC(=O)c1cc2c(-c3ccc(C(=O)N(CCCN4CCOCC4)Cc4ccccc4)cc3Oc3c(C)cccc3C)cn(C)c(=O)c2[nH]1 [Example 161, 4-[4-{benzyl[3-(morpholin-4-yl)propyl]carbamoyl}-2-(2,6-dimethylphenoxy)phenyl]-N-ethyl-6-methyl-7-oxo-6,7-dihydro-1H-pyrrolo[2,3-c]pyridine-2-carboxamide] | 1.95 |
| CCNC(=O)c1cc2c(-c3cc(S(=O)(=O)CC)ccc3Oc3c(C)cccc3CN3CCOCC3)cn(C)c(=O)c2[nH]1 [Example 146, N-ethyl-4-{5-(ethylsulfonyl)-2-[2-methyl-6-(morpholin-4-ylmethyl)phenoxy]phenyl}-6-methyl-7-oxo-6,7-dihydro-1H-pyrrolo[2,3-c]pyridine-2-carboxamide] | 9.32 |
| Cn1cc(-c2cc(S(C)(=O)=O)ccc2Oc2ccc(F)cc2F)c2cc(CN3CCN(c4ccccn4)CC3)[nH]c2c1=O [Example 132, 4-[2-(2,4-difluorophenoxy)-5-(methylsulfonyl)phenyl]-6-methyl-2-{[4-(pyridin-2-yl)piperazin-1-yl]methyl}-1,6-dihydro-7H-pyrrolo[2,3-c]pyridin-7-one] | 0.653 |
| CCNC(=O)c1cc2c(-c3cc(S(=O)(=O)CC)ccc3Oc3c(C)cccc3CN3CCCCC3)cn(C)c(=O)c2[nH]1 [Example 147, N-ethyl-4-{5-(ethylsulfonyl)-2-[2-methyl-6-(piperidin-1-ylmethyl)phenoxy]phenyl}-6-methyl-7-oxo-6,7-dihydro-1H-pyrrolo[2,3-c]pyridine-2-carboxamide] | 6.32 |
| CCNC(=O)c1cc2c(-c3cc(S(=O)(=O)CC)ccc3Oc3c(C)cccc3Cn3ccnc3)cn(C)c(=O)c2[nH]1 [Example 150, N-ethyl-4-{5-(ethylsulfonyl)-2-[2-(1H-imidazol-1-ylmethyl)-6-methylphenoxy]phenyl}-6-methyl-7-oxo-6,7-dihydro-1H-pyrrolo[2,3-c]pyridine-2-carboxamide] | > 10 |
| CCNC(=O)c1cc2c(-c3cc(S(=O)(=O)CC)ccc3Oc3c(C)cccc3CN3CCCS3(=O)=O)cn(C)c(=O)c2[nH]1 [Example 152, 4-[2-{2-[(1,1-dioxido-1,2-thiazolidin-2-yl)methyl]-6-methylphenoxy}-5-(ethylsulfonyl)phenyl]-N-ethyl-6-methyl-7-oxo-6,7-dihydro-1H-pyrrolo[2,3-c]pyridine-2-carboxamide] | 8.14 |
| Cn1cc(-c2cc(S(C)(=O)=O)ccc2Oc2ccc(F)cc2F)c2cc(CNCCC(N)=O)[nH]c2c1=O [Example 159, 3-[({4-[2-(2,4-difluorophenoxy)-5-(methylsulfonyl)phenyl]-6-methyl-7-oxo-6,7-dihydro-1H-pyrrolo[2,3-c]pyridin-2-yl}methyl)amino]propanamide] | 0.599 |
| CCNC(=O)c1cc2c(-c3ccc(C(=O)N(CC(=O)NC)Cc4ccccn4)cc3Oc3c(C)cccc3C)cn(C)c(=O)c2[nH]1 [Example 153, 4-[2-(2,6-dimethylphenoxy)-4-{[2-(methylamino)-2-oxoethyl](pyridin-2-ylmethyl)carbamoyl}phenyl]-N-ethyl-6-methyl-7-oxo-6,7-dihydro-1H-pyrrolo[2,3-c]pyridine-2-carboxamide] | > 10 |
| Cn1cc(-c2cc(S(C)(=O)=O)ccc2Oc2ccc(F)cc2F)c2cc(CN3CC(n4cncn4)C3)[nH]c2c1=O [Example 156, 4-[2-(2,4-difluorophenoxy)-5-(methylsulfonyl)phenyl]-6-methyl-2-{[3-(1H-1,2,4-triazol-1-yl)azetidin-1-yl]methyl}-1,6-dihydro-7H-pyrrolo[2,3-c]pyridin-7-one] | 0.332 |
| CCS(=O)(=O)c1ccc(OC2CCCCC2)c(-c2cn(C)c(=O)c3[nH]c(-c4cnn(C5CCNCC5)c4)cc23)c1 [Example 149, 4-[2-(cyclohexyloxy)-5-(ethylsulfonyl)phenyl]-6-methyl-2-[1-(piperidin-4-yl)-1H-pyrazol-4-yl]-1,6-dihydro-7H-pyrrolo[2,3-c]pyridin-7-one] | 0.00118 |
| CCNC(=O)c1cc2c(-c3cc(S(=O)(=O)CC)ccc3Oc3c(C)cccc3CCc3ccccc3)cn(C)c(=O)c2[nH]1 [Example 148, N-ethyl-4-{5-(ethylsulfonyl)-2-[2-methyl-6-(2-phenylethyl)phenoxy]phenyl}-6-methyl-7-oxo-6,7-dihydro-1H-pyrrolo[2,3-c]pyridine-2-carboxamide] | 1.68 |

The remaining lines, values ahead:

| EC50 [µM] | SMILES |
| --- | --- |
| 0.498 | CCN(CC)CCCCNC(=O)c1cc2c(-c3cc(S(C)(=O)=O)ccc3Oc3c(C)cccc3C)cn(C)c(=O)c2[nH]1 [Example 144, N-[4-(diethylamino)butyl]-4-[2-(2,6-dimethylphenoxy)-5-(methylsulfonyl)phenyl]-6-methyl-7-oxo-6,7-dihydro-1H-pyrrolo[2,3-c]pyridine-2-carboxamide] |
| 0.615 | Cc1cccc(C)c1Oc1ccc(S(C)(=O)=O)cc1-c1cn(C)c(=O)c2[nH]c(-c3nc(-c4cscn4)no3)cc12 [Example 142, 4-[2-(2,6-dimethylphenoxy)-5-(methylsulfonyl)phenyl]-6-methyl-2-[3-(1,3-thiazol-4-yl)-1,2,4-oxadiazol-5-yl]-1,6-dihydro-7H-pyrrolo[2,3-c]pyridin-7-one] |
| 0.532 | Cc1cccc(C)c1Oc1ccc(S(C)(=O)=O)cc1-c1cn(C)c(=O)c2[nH]c(-c3nc(-c4ccccn4)no3)cc12 [Example 139, 4-[2-(2,6-dimethylphenoxy)-5-(methylsulfonyl)phenyl]-6-methyl-2-[3-(pyridin-2-yl)-1,2,4-oxadiazol-5-yl]-1,6-dihydro-7H-pyrrolo[2,3-c]pyridin-7-one] |
| > 1 | Cc1cccc(C)c1Oc1ccc(S(C)(=O)=O)cc1-c1cn(C)c(=O)c2[nH]c(-c3nc(-c4ccccc4)no3)cc12 [Example 137, 4-[2-(2,6-dimethylphenoxy)-5-(methylsulfonyl)phenyl]-6-methyl-2-(3-phenyl-1,2,4-oxadiazol-5-yl)-1,6-dihydro-7H-pyrrolo[2,3-c]pyridin-7-one] |
| 0.238 | CCNC(=O)/C=C/c1cc2c(-c3cc(S(=O)(=O)CC)ccc3Oc3c(C)cccc3C)cn(C)c(=O)c2[nH]1 [Example 134, (2E)-3-{4-[2-(2,6-dimethylphenoxy)-5-(ethylsulfonyl)phenyl]-6-methyl-7-oxo-6,7-dihydro-1H-pyrrolo[2,3-c]pyridin-2-yl}-N-ethylprop-2-enamide] |
| 0.532 | CCN(CC)C(C)(C)CNC(=O)c1cc2c(-c3cc(S(C)(=O)=O)ccc3Oc3c(C)cccc3C)cn(C)c(=O)c2[nH]1 [Example 143, N-[2-(diethylamino)-2-methylpropyl]-4-[2-(2,6-dimethylphenoxy)-5-(methylsulfonyl)phenyl]-6-methyl-7-oxo-6,7-dihydro-1H-pyrrolo[2,3-c]pyridine-2-carboxamide] |
| 0.443 | Cc1cccc(C)c1Oc1ccc(S(C)(=O)=O)cc1-c1cn(C)c(=O)c2[nH]c(-c3nc(C4CCOCC4)no3)cc12 [Example 141, 4-[2-(2,6-dimethylphenoxy)-5-(methylsulfonyl)phenyl]-6-methyl-2-[3-(tetrahydro-2H-pyran-4-yl)-1,2,4-oxadiazol-5-yl]-1,6-dihydro-7H-pyrrolo[2,3-c]pyridin-7-one] |
| 0.465 | Cc1cccc(C)c1Oc1ccc(S(C)(=O)=O)cc1-c1cn(C)c(=O)c2[nH]c(-c3nc(-c4cccnc4)no3)cc12 [Example 138, 4-[2-(2,6-dimethylphenoxy)-5-(methylsulfonyl)phenyl]-6-methyl-2-[3-(pyridin-3-yl)-1,2,4-oxadiazol-5-yl]-1,6-dihydro-7H-pyrrolo[2,3-c]pyridin-7-one] |
| 0.491 | Cc1cccc(C)c1Oc1ccc(S(C)(=O)=O)cc1-c1cn(C)c(=O)c2[nH]c(-c3nc(-c4cnccn4)no3)cc12 [Example 140, 4-[2-(2,6-dimethylphenoxy)-5-(methylsulfonyl)phenyl]-6-methyl-2-[3-(pyrazin-2-yl)-1,2,4-oxadiazol-5-yl]-1,6-dihydro-7H-pyrrolo[2,3-c]pyridin-7-one] |
